Measurements reported in patent US9707200B2, “Metabolism-improving agent comprising rare fatty acid” (KYOTO UNIVERSITY, priority 2012, dated 2017).

Tests used:
HepG2 cells [1] = test: Intracellular triacylglycerol accumulation by LXR agonist; assay type: cell-based, human; settings: 10 nM T0901317 + 60 μM fatty acid, 24 hr
Procedure: (§1) HepG2 cells (2.0×10^5 cells/mL) were cultured in DMEM medium containing 10% FES for 24 hr, and the medium was exchanged with 0.1% BSA-containing DMEM medium containing 10 nM LXR agonist T0901317 (Cayman Chemicals) and 60 μM various fatty acid. After culture for 24 hr, the cells were recovered, and total RNA was extracted using Sepasol reagent (Nacalai Tesque). After DNase treatment, reverse transcription was performed using SuperScriptII (Invitrogen) to give a cDNA solution. Using SYBR Green Mix (Bio-Rad, Richmond, Calif.) and gene-specific primer (Table 1), real-time PCR was performed as follows.
(§2) 1. Reaction at 96° C., 15 min, 2. reaction at 96° C., 15 sec, 3. reaction at 60° C. for 30 sec, 4. measurement of fluorescence, 5. 2-4 were repeated 40 times, 6. the melting curve was measured from 65° C. to 95° C. at 0.4° C. intervals. As the internal standard, 18S rRNA was used. The genes involved in the fatty acid synthesis as measured were Sterol regulatory element binding protein-1c (SREBP-1c), Stearoyl coenzyme A desaturase-1 (SCD-1), Fatty acid synthase (FAS), and Acetyl CoA carboxylase-1 and -2 (ACC-1, 2). As for the amount of accumulated intracellular TG, the lipid was extracted with chloroform-methanol, and quantified by triglyceride-′E Test Wako (Wako Pure Chemical Industries, Ltd.).

HepG2 cells [2] = test: Effect on LXR agonist-induced expression of fatty acid synthesis genes, real-time PCR; assay type: cell-based, human; settings: 10 nM T0901317 + 60 μM fatty acid, 24 hr
Procedure: Using human liver cancer-derived HepG2 cells (cell No.; JCRB1054, the Health Science Research Resources Bank), a suppressive effect on fatty acid synthesis promotion induced by LXR agonist was evaluated by reference to the method of Zaima et al. (Journal of Lipid Research 47, 2712-2717, 2006).
as §1, §2

LXR = target: T1, LXR (Homo sapiens, UniProt Q13133); test: Antagonizing action on LXR by luciferase assay; assay type: cell-based; settings: for antagonizing action on LXR (relative luciferase activity): HepG2 cells, fatty acid + T0901317, 24 hr; for lipid synthesis suppressive action by the antagonizing action on LXR: overall finding from SREBP-1c, SREBP-1, SCD-1, FAS, ACC1, 2, triacylglycerol and LXR luciferase measurements in HepG2 cells
T1 construct: expressed in transfected cells; host or cells: HepG2 (human liver cancer-derived)
T1 sequence (Q13133 1-447): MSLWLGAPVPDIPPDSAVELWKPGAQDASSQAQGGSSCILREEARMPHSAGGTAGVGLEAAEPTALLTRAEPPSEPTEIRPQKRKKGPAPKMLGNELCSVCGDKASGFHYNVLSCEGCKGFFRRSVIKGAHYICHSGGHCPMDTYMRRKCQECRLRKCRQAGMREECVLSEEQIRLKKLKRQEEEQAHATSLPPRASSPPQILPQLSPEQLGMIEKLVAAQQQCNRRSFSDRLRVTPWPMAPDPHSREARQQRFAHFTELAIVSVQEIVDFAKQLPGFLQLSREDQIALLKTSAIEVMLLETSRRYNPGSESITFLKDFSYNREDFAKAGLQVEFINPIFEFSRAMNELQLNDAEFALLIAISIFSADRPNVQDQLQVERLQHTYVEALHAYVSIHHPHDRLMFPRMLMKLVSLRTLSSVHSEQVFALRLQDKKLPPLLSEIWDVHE
Procedure: In addition, the protein expression level of immature and mature SREBP-1c was measured. Cells treated as mentioned above were dispersed in buffer A (250 mM sucrose, 10 mM HEPES-KOH, 10 mM KCl, 1.5 mM MgCl2, 1 mM EDTA-Na, 1 mM EGTA-Na, pH 7.6) containing a protease inhibitor, passed 20 times through a 23 gauge injection needle, and centrifuged (1,000×g, 4° C., 5 min) to separate into supernatant 1 and precipitate 1. The precipitate 1 was re-dissolved in buffer B (20 mM HEPES-KOH, 0.42 M NaCl, 2.5% glycerol, 1.5 mM MgCl2, 1 mM EDTA-Na, 1 mM EGTA-Na, pH 7.6), and centrifuged (10^5×g, 4° C., 15 min). The obtained supernatant 2 was used as a nuclear fraction (including mature form). The supernatant 1 was further centrifuged (10^5×g, 4° C., 15 min), and the obtained precipitate 2 was dissolved in cell lysate (10 mM Tris-HCl, 100 mM NaCl, 1% SDS, 1 mM EDTA-Na, 1 mM EGTA-Na) and used as a membrane fraction (including immature form). Using these as samples, measurement was performed by Western blot method using anti-SREBP-1 polyclonal antibody (Santa Cruz). Using Dual luciferase system (Promega), antagonizing action on LXR was evaluated by luciferase assay. p3xIR1-tk-Luc, pCMX-hLXRa, pRL-CMX were introduced into HepG2 cell. After culture in a 0.1% BSA-containing serum-free medium containing various fatty acids and T0901317 for 24 hr, the luciferase activity was measured.

SMILES | suppression of intracellular triacylglycerol increase by LXR agonist (HepG2 cells [1]) | ACC1 mRNA expression induced by LXR agonist (HepG2 cells [2]) | ACC2 mRNA expression induced by LXR agonist (HepG2 cells [2]) | FAS mRNA expression induced by LXR agonist (HepG2 cells [2]) | SCD-1 mRNA expression induced by LXR agonist (HepG2 cells [2]) | suppression of SREBP-1c mRNA expression induced by LXR agonist (HepG2 cells [2]) | antagonizing action on LXR (relative luciferase activity) (LXR) | lipid synthesis suppressive action by the antagonizing action on LXR (LXR)
CCCCC/C=C\CC(O)CCCCCCCCC(=O)O (stereo not drawn) [HYA, 10-hydroxy-cis-12-octadecenoic acid] | significantly suppressed | down regulation | down regulation | down regulation | down regulation | strong suppressive action | significantly suppress the action of T0901317 | strong lipid synthesis suppressive action
CCCCC/C=C\CC(=O)CCCCCCCCC(=O)O [KetoA, 10-oxo-cis-12-octadecenoic acid] | significantly suppressed | down regulation | down regulation | down regulation | down regulation | strong suppressive action | significantly suppress the action of T0901317 | strong lipid synthesis suppressive action
